The values below are quoted from earlier work in US6462226B1, “Process for the preparation of 4,5-diamino shikimic acid derivatives” (priority 1999, dated 2002).

The test system of the data set is viral neuraminidase. The conditions noted are these: J. C. Rohloff et al., J.Org.Chem. 63, 1998, 4545-4550; WO 98/07685.

`CCOC(=O)C1=C[C@@H](OC(CC)CC)[C@H](NC(C)=O)[C@@H](N)C1` [Example 1, Ethyl (3R, 4R, 5S)-4-acetamido-5-amino-3-(1-ethylpropoxy)-1-cyclohexene-1-carboxylate]: the “inhibition of viral neuraminidase” value is recorded as “potent inhibitors”.
